Article PMC9325274, “In Vitro and In Silico Investigation of Diterpenoid Alkaloids Isolated from Delphinium chitralense” (Molecules, 2022)
Like-named read-outs stand apart in the source and are kept apart here.

Columns and labels:
[1] = biological target: T1, BChE (horse serum EC 3.1.1.8) (Equus caballus, UniProt P81908); assay: biochemical
T1 construct: purchased Sigma-Aldrich (St. Louis, MO, USA); host or cells: horse serum

[2] = biological target: T2, AChE (Electric-eel EC 3.1.1.7) (Electrophorus electricus, UniProt O42275); assay: biochemical
T2 construct: purchased Sigma-Aldrich (St. Louis, MO, USA)

[3] = read-out: BChE ± SEM (IC50), SEM of five assays
[4] = read-out: AChE ± SEM (IC50); Electric-eel AChE; SEM of five assays

T2 sequence (O42275 24-633): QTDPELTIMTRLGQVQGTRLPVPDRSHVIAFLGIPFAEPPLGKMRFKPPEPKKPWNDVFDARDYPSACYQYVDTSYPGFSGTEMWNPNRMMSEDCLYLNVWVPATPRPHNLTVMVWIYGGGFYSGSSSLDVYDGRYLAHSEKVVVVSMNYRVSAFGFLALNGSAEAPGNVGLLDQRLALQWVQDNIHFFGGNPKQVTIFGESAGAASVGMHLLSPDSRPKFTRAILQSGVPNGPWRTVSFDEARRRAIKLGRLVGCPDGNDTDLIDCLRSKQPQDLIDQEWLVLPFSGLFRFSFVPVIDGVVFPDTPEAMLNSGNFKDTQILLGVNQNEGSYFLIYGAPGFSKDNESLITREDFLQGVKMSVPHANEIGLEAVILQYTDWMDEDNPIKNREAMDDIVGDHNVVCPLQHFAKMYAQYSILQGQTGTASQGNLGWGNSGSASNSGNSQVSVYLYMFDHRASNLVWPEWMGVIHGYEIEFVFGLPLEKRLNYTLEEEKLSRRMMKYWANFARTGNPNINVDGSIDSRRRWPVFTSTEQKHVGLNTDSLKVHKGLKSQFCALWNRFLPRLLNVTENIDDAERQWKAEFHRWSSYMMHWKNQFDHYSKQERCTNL
T1 sequence (P81908 whole entry): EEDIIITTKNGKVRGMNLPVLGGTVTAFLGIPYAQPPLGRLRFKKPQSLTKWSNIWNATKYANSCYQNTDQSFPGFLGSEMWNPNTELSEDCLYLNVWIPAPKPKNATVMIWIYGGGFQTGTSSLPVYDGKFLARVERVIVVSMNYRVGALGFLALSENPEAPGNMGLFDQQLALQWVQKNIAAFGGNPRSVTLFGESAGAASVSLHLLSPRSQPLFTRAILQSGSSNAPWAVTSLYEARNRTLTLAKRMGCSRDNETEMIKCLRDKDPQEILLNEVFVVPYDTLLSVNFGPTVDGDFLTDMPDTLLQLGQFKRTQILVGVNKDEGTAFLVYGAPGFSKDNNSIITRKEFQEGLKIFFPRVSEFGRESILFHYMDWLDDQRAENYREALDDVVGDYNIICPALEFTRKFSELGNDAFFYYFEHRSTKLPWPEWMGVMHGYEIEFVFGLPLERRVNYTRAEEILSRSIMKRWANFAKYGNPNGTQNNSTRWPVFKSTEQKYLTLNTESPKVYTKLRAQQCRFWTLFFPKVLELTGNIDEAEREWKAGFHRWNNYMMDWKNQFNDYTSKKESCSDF

## C=C1CC23CC(=O)C4C5(C)CC(O)C(O)C46C(C2C(=O)C1CC36O)N(C)C5 (stereo not drawn) [Compound 1, 9β-hydroxy hetidine]
[1]; SEM of five assays, read-out: BChE ± SEM (IC50)
  IC50: 28.2 ± 0.92 µM
[2]; Electric-eel AChE; SEM of five assays; read-out: AChE ± SEM (IC50)
  IC50: 13.9 ± 0.35 µM
[2]; stated for inhibition of AChE and BChE; listed as Chitralinine A
  Type of Inhibition: Competitive

## C=C1CC23CC(=O)C4C5(C)CC(O)C(O)C46C(C2CC1(O)C(O)C36O)N(C)C5O (stereo not drawn) [Compound 3, 1α, 2, 9,11,12,19β-hexahydoxy atisinone]
[1]; [3]
  IC50: 26.35 ± 0.06 µM
[2]; [4]
  IC50: 12.1 ± 0.82 µM
[2]; stated for inhibition of AChE and BChE; listed as Chitralinine-C
  Type of Inhibition: Competitive

## C=C1CC23CC(=O)C4C56C(C2C(=O)C1(O)C(O)C35O)N(C)C(O)[C@]4(C)CC(O)[C@@H]6O (stereo partly drawn) [Compound 2, 9,11,12,19β- tetrahydoxy hetidine]
[1]; [3]
  IC50: 24.3 ± 0.33 µM
[2]; [4]
  IC50: 11.64 ± 0.08 µM
[2]; stated for inhibition of AChE and BChE; listed as Chitralinine B
  Type of Inhibition: Competitive
